# From ChEMBL document CHEMBL1153825, “From a natural product lead to the identification of potent and selective benzofuran-3-yl-(indol-3-yl)maleimides as glycogen synthase kinase 3beta inhibitors that suppress proliferation and survival of pancreatic cancer cells” (J Med Chem, 2009)
# How the values were obtained:
# BXPC-3 = test: Growth inhibition of human BxPC3 cells after 72 hrs by MTS assay; type: functional, cell-based; details: BXPC-3, 72 h
# HuP-T3 = test: Growth inhibition of human HUPT3 cells after 72 hrs by MTS assay; type: functional, cell-based; details: HuP-T3, 72 h
# MIA PaCa-2 = test: Growth inhibition of human MIAPaCa2 cells after 72 hrs by MTS assay; type: functional, cell-based; details: MIA PaCa-2, 72 h
# [1] = molecular target: Glycogen synthase kinase-3 beta (Homo sapiens, UniProt P49841); test: Inhibition of human GSK3-beta by scintillation counting
# Chain of Glycogen synthase kinase-3 beta (P49841 whole entry): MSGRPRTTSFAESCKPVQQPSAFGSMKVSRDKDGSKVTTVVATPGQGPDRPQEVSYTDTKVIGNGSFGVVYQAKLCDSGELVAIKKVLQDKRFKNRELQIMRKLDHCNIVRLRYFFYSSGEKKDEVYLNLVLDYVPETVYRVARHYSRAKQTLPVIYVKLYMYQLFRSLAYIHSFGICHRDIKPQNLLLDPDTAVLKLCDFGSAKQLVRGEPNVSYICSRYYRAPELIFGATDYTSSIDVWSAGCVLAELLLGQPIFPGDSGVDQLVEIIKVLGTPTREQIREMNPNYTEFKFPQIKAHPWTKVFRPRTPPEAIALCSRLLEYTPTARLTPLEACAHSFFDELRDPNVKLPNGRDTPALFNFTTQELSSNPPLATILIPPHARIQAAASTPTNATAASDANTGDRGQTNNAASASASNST
# [2] = molecular target: T1, Cyclin-dependent kinase 2 (Homo sapiens, UniProt P24941)
# [3] = molecular target: Mitogen-activated protein kinase 3 (Homo sapiens, UniProt P27361); test: Inhibition of ERK1 up to 50 uM
# Chain of Mitogen-activated protein kinase 3 (P27361 whole entry): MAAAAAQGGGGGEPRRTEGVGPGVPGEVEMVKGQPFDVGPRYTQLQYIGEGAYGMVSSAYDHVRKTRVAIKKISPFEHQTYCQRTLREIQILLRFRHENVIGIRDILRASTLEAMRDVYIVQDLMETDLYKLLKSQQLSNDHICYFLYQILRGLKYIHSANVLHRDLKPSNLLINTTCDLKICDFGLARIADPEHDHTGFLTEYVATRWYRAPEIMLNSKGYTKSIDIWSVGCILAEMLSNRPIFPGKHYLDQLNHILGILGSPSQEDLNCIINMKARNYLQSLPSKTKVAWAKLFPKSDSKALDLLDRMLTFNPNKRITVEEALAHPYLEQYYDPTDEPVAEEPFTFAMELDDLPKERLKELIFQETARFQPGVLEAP
# [4] = molecular target: T2, Inhibitor of nuclear factor kappa-B kinase subunit beta (Homo sapiens, UniProt O14920); test: Inhibition of IKK-beta up to 50 uM
# T2 sequence (O14920 whole entry): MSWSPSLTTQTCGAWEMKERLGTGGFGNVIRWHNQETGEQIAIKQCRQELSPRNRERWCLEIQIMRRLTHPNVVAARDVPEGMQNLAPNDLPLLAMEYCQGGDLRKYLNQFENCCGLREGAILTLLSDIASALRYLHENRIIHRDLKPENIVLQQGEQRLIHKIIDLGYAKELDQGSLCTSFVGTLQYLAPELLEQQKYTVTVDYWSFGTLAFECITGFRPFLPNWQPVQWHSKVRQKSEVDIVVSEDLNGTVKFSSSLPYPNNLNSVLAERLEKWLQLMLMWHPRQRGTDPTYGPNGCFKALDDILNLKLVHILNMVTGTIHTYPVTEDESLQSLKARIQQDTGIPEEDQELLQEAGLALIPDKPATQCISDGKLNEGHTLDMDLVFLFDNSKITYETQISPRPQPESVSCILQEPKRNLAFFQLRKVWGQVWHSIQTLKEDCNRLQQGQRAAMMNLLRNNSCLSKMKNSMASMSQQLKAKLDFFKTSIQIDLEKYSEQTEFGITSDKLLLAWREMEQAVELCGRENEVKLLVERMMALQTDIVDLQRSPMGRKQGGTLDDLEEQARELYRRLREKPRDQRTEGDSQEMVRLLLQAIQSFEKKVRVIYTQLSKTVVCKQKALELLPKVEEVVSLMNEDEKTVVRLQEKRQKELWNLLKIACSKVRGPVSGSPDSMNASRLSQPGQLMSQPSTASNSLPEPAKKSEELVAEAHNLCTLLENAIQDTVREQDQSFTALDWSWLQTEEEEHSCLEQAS
# [5] = molecular target: RAF proto-oncogene serine/threonine-protein kinase (Homo sapiens, UniProt P04049); test: Inhibition of cRAF up to 50 uM
# Chain of RAF proto-oncogene serine/threonine-protein kinase (P04049 whole entry): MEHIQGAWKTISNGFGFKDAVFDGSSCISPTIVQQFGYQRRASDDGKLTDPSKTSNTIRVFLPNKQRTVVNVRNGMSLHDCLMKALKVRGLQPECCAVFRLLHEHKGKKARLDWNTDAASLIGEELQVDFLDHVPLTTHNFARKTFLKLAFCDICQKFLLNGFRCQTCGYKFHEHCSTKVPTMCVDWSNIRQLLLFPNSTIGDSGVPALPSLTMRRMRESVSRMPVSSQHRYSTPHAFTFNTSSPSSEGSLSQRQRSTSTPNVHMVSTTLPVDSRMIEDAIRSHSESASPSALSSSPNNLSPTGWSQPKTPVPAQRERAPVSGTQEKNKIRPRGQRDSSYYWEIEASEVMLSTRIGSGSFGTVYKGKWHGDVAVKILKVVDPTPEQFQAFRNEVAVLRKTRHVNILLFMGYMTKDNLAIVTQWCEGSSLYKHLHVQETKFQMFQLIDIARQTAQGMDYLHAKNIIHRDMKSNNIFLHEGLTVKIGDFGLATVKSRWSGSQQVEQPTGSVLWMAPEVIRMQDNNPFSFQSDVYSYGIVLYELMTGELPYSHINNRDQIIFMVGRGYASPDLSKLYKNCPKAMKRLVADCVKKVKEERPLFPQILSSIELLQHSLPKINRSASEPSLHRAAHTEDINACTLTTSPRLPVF
# [6] = molecular target: RAC-gamma serine/threonine-protein kinase (Homo sapiens, UniProt Q9Y243); test: Inhibition of AKT3 up to 50 uM
# Chain of RAC-gamma serine/threonine-protein kinase (Q9Y243 whole entry): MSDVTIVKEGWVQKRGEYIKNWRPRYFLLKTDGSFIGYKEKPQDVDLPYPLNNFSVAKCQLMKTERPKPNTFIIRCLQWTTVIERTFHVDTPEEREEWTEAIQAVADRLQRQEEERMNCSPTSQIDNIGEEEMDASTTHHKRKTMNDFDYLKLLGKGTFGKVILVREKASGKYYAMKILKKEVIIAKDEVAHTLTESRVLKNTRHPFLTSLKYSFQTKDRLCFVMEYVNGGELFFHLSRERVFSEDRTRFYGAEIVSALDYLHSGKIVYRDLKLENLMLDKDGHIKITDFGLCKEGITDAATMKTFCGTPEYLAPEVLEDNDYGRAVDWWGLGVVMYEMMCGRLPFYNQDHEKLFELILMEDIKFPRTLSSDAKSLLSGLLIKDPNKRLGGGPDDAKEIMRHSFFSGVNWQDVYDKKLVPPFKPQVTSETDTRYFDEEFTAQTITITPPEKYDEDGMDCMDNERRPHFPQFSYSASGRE
# [7] = molecular target: T1, Cyclin-dependent kinase 2; remark: listed apart in the source
# [8] = molecular target: T3, Serine/threonine-protein kinase Chk1 (Homo sapiens, UniProt O14757); test: Inhibition of CHK1
# T3 sequence (O14757 whole entry): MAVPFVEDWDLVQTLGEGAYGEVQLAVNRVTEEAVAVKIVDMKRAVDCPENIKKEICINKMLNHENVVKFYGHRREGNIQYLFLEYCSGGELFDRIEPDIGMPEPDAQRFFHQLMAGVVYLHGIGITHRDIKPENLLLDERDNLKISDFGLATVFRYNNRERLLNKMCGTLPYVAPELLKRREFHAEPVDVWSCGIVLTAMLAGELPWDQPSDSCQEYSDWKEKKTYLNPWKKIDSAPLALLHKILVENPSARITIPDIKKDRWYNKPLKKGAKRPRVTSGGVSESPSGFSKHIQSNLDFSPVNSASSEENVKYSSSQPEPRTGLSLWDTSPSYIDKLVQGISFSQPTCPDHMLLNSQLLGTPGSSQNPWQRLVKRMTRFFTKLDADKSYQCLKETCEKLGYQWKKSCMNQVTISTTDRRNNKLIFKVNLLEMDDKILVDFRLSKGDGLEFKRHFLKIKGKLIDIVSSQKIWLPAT
# [9] = molecular target: T4, Inhibitor of nuclear factor kappa-B kinase subunit alpha (Homo sapiens, UniProt O15111)
# T4 sequence (O15111 whole entry): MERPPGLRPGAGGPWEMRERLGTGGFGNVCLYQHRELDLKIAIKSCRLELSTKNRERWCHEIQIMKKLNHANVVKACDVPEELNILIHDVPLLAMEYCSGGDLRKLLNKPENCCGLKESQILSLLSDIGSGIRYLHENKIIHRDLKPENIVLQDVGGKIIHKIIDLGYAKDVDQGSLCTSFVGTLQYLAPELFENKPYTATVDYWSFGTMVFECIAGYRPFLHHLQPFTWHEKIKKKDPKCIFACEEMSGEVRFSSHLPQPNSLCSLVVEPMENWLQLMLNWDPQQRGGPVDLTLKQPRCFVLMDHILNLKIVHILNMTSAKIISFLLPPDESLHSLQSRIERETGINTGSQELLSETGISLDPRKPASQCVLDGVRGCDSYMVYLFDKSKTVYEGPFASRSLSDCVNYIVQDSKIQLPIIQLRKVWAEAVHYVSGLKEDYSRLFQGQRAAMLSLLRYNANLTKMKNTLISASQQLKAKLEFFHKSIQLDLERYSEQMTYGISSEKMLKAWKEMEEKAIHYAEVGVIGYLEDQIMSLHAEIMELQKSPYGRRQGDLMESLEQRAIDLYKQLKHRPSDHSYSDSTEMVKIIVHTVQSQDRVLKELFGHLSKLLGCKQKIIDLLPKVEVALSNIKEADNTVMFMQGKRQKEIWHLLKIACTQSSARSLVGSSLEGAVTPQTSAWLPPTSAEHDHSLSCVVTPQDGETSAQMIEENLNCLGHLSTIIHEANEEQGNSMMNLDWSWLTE
# [10] = molecular target: Cyclin-dependent kinase 1/cyclin B1 (Homo sapiens, UniProt P06493); test: Inhibition of CDK1/Cyclin B; type: protein-complex assay
# Chain of Cyclin-dependent kinase 1/cyclin B1 (P06493 whole entry): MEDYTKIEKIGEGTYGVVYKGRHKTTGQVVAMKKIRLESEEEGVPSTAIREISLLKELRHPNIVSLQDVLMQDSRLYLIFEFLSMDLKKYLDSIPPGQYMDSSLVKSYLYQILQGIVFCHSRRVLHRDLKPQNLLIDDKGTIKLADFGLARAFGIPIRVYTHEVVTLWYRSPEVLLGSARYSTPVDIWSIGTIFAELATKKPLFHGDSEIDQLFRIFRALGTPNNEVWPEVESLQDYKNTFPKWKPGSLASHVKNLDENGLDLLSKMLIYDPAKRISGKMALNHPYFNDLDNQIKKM
# Chain of Cyclin-dependent kinase 1/cyclin B1 (P14635 whole entry, further chain): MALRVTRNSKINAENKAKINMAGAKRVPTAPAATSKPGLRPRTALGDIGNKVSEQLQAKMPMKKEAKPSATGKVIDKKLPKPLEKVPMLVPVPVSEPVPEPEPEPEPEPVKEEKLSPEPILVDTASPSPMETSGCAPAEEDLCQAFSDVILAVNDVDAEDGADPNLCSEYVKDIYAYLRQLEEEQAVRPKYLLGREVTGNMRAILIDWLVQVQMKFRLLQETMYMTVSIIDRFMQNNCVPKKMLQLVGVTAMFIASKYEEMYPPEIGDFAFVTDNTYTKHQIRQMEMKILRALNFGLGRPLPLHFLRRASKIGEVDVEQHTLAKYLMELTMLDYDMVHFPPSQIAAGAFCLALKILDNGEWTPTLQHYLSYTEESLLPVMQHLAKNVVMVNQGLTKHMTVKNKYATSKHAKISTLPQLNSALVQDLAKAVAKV
IC50 (BXPC-3),IC50 (MIA PaCa-2),IC50 [1],Compound,IC50 (HuP-T3),also measured
6 µM,8 µM,,COc1cccc2c(C3=C(c4cn(C)c5cc(C(F)(F)F)ccc45)C(=O)NC3=O)coc12,6 µM,
> 50 µM,> 50 µM,,COc1cc2c(C3=C(c4coc5ccccc45)C(=O)NC3=O)cn(C)c2cc1Cl,> 50 µM,
> 50 µM,34 µM,,Cn1cc(C2=C(c3coc4ccc(F)cc34)C(=O)NC2=O)c2cc(C#CC3CC3)ccc21,> 50 µM,
2 µM,3 µM,,Cn1cc(C2=C(c3coc4ccccc34)C(=O)NC2=O)c2cc(F)c(Cl)cc21,2 µM,
,30 µM,,Cn1cc(C2=C(c3coc4ccccc34)C(=O)NC2=O)c2cc(Br)ccc21,43 µM,
,,0.00051 µM,Cn1cc(C2=C(c3coc4cc(CO)ccc34)C(=O)NC2=O)c2cc(Br)ccc21,,
,,1.29 µM,Cn1cc(C2=C(c3coc4cc(OCC5CC5)ccc34)C(=O)NC2=O)c2cc(F)c(Cl)cc21,,
> 50 µM,> 50 µM,,COCc1cccc2c(C3=C(c4coc5ccccc45)C(=O)NC3=O)cn(C)c12,,
7 µM,17 µM,,Cn1cc(C2=C(c3coc4cc(F)c(F)cc34)C(=O)NC2=O)c2ccc3ccccc3c21,6 µM,
,,0.0075 µM,COc1cccc2c(C3=C(c4cn(C)c5ccc(Br)cc45)C(=O)NC3=O)coc12,,IC50 [2]: 1.16 µM
,,0.87 µM,COc1ccc2c(C3=C(c4cn(C)c5cc(Cl)c(F)cc45)C(=O)NC3=O)coc2c1,,
,,,COc1cccc2c(C3=C(c4cn(C)c5cc(I)c(F)cc45)C(=O)NC3=O)coc12,,IC50 [2]: > 50 µM; IC50 [3]: Not Active; IC50 [4]: Not Active; IC50 [5]: Not Active; IC50 [6]: Not Active; IC50 [7]: > 50 µM; IC50 [8]: > 50 µM; IC50 [9]: > 50 µM; IC50 [10]: > 50 µM

Compound,IC50 (BXPC-3),IC50 (MIA PaCa-2),IC50 [1],IC50 (HuP-T3),also measured
COc1ccc(CNC(=O)Nc2ncc([N+](=O)[O-])s2)cc1,14 µM,29 µM,,22 µM,
Cn1cc(C2=C(c3coc4cc(OCC5CCC5)ccc34)C(=O)NC2=O)c2cc(F)c(Cl)cc21,,,4.09 µM,,
Cn1cc(C2=C(c3coc4ccccc34)C(=O)NC2=O)c2cc(I)ccc21,,,0.0345 µM,> 50 µM,
Cn1cc(C2=C(c3coc4ccc(F)cc34)C(=O)NC2=O)c2cc(Cl)ccc21,,,0.042 µM,,
Cn1cc(C2=C(c3ccc(Cl)cc3Cl)C(=O)NC2=O)c2ccccc21 [SB-216763],,25 µM,,,
